{"source": "patent US8680052B1", "about": "“Methods of treating, reducing the incidence of, and/or preventing ischemic events” (The Medicines Company, priority 2013, dated 2014)", "molecular_target": "T1, P2Y12 receptor (Homo sapiens, UniProt Q9H244)", "T1 construct": "from tissue; host or cells: platelets in whole blood of patients", "T1 sequence (Q9H244 whole entry)": "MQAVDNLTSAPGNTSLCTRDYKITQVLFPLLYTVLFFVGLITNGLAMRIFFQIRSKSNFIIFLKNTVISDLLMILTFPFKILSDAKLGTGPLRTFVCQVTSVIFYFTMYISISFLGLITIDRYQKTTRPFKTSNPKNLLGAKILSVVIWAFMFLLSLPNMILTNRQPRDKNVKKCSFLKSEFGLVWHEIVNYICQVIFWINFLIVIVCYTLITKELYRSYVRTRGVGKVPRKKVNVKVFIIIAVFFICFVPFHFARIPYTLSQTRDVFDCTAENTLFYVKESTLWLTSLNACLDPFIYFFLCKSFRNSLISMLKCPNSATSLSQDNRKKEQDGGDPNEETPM", "assay": "Example 4: VerifyNow P2Y12 assay, platelet reactivity in PRU", "type": "in vivo", "description": "The study involved 12 patients who met the criteria of being 18-75 years of age, having coronary artery disease (CAD) documented by a previous MI or coronary revascularization, and taking 81 mg of aspirin daily. […] Use of non-steroidal anti-inflammatory agents was discouraged during study participation but not prohibited.\nEach patient was administered a 30 μg/kg bolus of cangrelor followed immediately by a 2 hr infusion at a rate of 4.0 μg/kg/min. A loading dose of ticagrelor (180 mg) was given after 0.5 hr or 1.25 hr (n=6 for each). Blood for pharmacodynamic platelet function studies was taken after 0.5 or 1.25 hr (corresponding to the time of ticagrelor load, n=6 for each), and then at 1.75, 2, 2.25, 2.5, 2.75, 3, 4, and 5.25 hr. Patients were assigned randomly to receive either 6 (n=6) or 7 (n=6) doses of ticagrelor to be taken every 12 hours following the discontinuation of the infusion of cangrelor. On study day 5, each patient was administered a 30 μg/kg bolus of cangrelor followed immediately by a 2 hr infusion at a rate of 4.0 μg/kg/min. Blood for pharmacodynamic assessment was taken after 1 and 2 hr. Adverse events were queried throughout study participation that ended with a telephone interview performed on study day 10-12.\nPharmacodynamic assessment included light transmission aggregometry (LTA), VerifyNow® P2Y12 assay, vasodilator-stimulated phosphoprotein (VASP) index, and platelet activation measured with the use of flow cytometry. Assessment of LTA, VerifyNow®, and platelet activation with the use of flow cytometry was performed within 30 min of blood being taken. In the case of flow cytometry, samples were processed to fixation and then batched for analysis. For VASP, index samples were batched and processed as recommended by the vendor within 2 h of blood being taken. This approach limited the time from fixation of VASP index to flow analysis to less than 1 h.\nLTA induced by 5 μM and 20 μM adenosine diphosphate (ADP) was quantified ex vivo (i.e. in non-adjusted platelet rich plasma). Platelet-poor plasma was set as 100% aggregation, and both maximal (peak) and terminal (at 300 s) aggregation were measured with a PAP4 aggregometer (BioData, Horsham, Pa.). VerifyNow® P2Y12 assay (Accumetrics Inc, San Diego, Calif.) that measures the effects of drugs on the P2Y12 receptor by activating platelets with prostaglandin El in addition to ADP was used in accordance with the instructions provided by the manufacturer. Platelet reactivity was expressed in P2Y12 reaction units (PRU). Activation of platelets was identified with the use of flow cytometry as previously described.^17. And to determine the VASP index, a commercially available kit (Diagnostica Stago, Inc, Parsippany NJ) was used. ^17 Schneider D J, Sobel B E. Streamlining the design of promising clinical trials: in-vitro testing of antithrombotic regimens and multiple agonists of platelet activation. Coron Artery Dis. 2009; 20:175-8.", "key": {"[1]": {"conditions": "Study Day 1, 1.75 h, Ticagrelor at 0.5 hr"}, "[2]": {"conditions": "Study Day 1, 1.75 h, Ticagrelor at 1.25 hr"}, "[3]": {"conditions": "Study Day 1, 2.0 h, Ticagrelor at 0.5 hr"}, "[4]": {"conditions": "Study Day 1, 2.0 h, Ticagrelor at 1.25 hr"}, "[5]": {"conditions": "Study Day 1, reference 0.5/1.25 h, All"}, "[6]": {"conditions": "Study Day 1, reference 0.5/1.25 h, Ticagrelor at 0.5 hr"}, "[7]": {"conditions": "Study Day 1, reference 0.5/1.25 h, Ticagrelor at 1.25 hr"}, "[8]": {"conditions": "Study Day 5, 1.0 h, Ticagrelor 6 doses"}, "[9]": {"conditions": "Study Day 5, 1.0 h, Ticagrelor 7 doses"}, "[10]": {"conditions": "Study Day 5, 2.0 h, Ticagrelor 6 doses"}, "[11]": {"conditions": "Study Day 5, 2.0 h, Ticagrelor 7 doses"}, "[12]": {"conditions": "reference 5.25 h, Ticagrelor at 0.5 h"}, "[13]": {"conditions": "reference 5.25 h, Ticagrelor at 1.25 h"}}}
{"smiles": "CSCCNc1nc(SCCC(F)(F)F)nc2c1ncn2[C@@H]1O[C@H](COP(=O)(O)OP(=O)(O)C(Cl)(Cl)P(=O)(O)O)[C@@H](O)[C@H]1O", "note": "[Cangrelor, cangrelor]", "values": [{"measurement": "VerifyNow IPR", "setting": "Study Day 1, 1.75 h, All", "result": "99 ± 1"}, {"measurement": "VerifyNow PRU", "setting": "Study Day 1, 1.75 h, All", "result": "3.8 ± 2.6", "unit": "PRU"}, {"measurement": "VerifyNow IPR", "setting": "[1]", "result": "99 ± 1"}, {"measurement": "VerifyNow PRU", "setting": "[1]", "result": "3.8 ± 2.6", "unit": "PRU"}, {"measurement": "VerifyNow IPR", "setting": "[2]", "result": "99 ± 1"}, {"measurement": "VerifyNow PRU", "setting": "[2]", "result": "3.7 ± 2.8", "unit": "PRU"}, {"measurement": "VerifyNow IPR", "setting": "Study Day 1, 2.0 h, All", "result": "98 ± 3"}, {"measurement": "VerifyNow PRU", "setting": "Study Day 1, 2.0 h, All", "result": "6.4 ± 7.5", "unit": "PRU"}, {"measurement": "VerifyNow IPR", "setting": "[3]", "result": "97 ± 2"}, {"measurement": "VerifyNow PRU", "setting": "[3]", "result": "6.9 ± 4.9", "unit": "PRU"}, {"measurement": "VerifyNow IPR", "setting": "[4]", "result": "98 ± 4"}, {"measurement": "VerifyNow PRU", "setting": "[4]", "result": "5.9 ± 9.9", "unit": "PRU"}, {"measurement": "VerifyNow IPR", "setting": "[5]", "result": "97 ± 3"}, {"measurement": "VerifyNow PRU", "setting": "[5]", "result": "7.3 ± 9.3", "unit": "PRU"}, {"measurement": "VerifyNow IPR", "setting": "[6]", "result": "97 ± 4"}, {"measurement": "VerifyNow PRU", "setting": "[6]", "result": "8.8 ± 12", "unit": "PRU"}, {"measurement": "VerifyNow IPR", "setting": "[7]", "result": "98 ± 3"}, {"measurement": "VerifyNow PRU", "setting": "[7]", "result": "5.8 ± 7.3", "unit": "PRU"}, {"measurement": "VerifyNow IPR", "setting": "Study Day 5, 1.0 h, All", "result": "99 ± 1"}, {"measurement": "VerifyNow PRU", "setting": "Study Day 5, 1.0 h, All", "result": "3.3 ± 2", "unit": "PRU"}, {"measurement": "VerifyNow IPR", "setting": "[8]", "result": "99 ± 1"}, {"measurement": "VerifyNow PRU", "setting": "[8]", "result": "2.8 ± 1.9", "unit": "PRU"}, {"measurement": "VerifyNow IPR", "setting": "[9]", "result": "98 ± 1"}, {"measurement": "VerifyNow PRU", "setting": "[9]", "result": "3.9 ± 2.1", "unit": "PRU"}, {"measurement": "VerifyNow IPR", "setting": "Study Day 5, 2.0 h, All", "result": "98 ± 3"}, {"measurement": "VerifyNow PRU", "setting": "Study Day 5, 2.0 h, All", "result": "4.5 ± 6.4", "unit": "PRU"}, {"measurement": "VerifyNow IPR", "setting": "[10]", "result": "99 ± 1"}, {"measurement": "VerifyNow PRU", "setting": "[10]", "result": "2.4 ± 1.9", "unit": "PRU"}, {"measurement": "VerifyNow IPR", "setting": "[11]", "result": "97 ± 3"}, {"measurement": "VerifyNow PRU", "setting": "[11]", "result": "6.5 ± 8.8", "unit": "PRU"}]}
{"smiles": "CCCSc1nc(N[C@@H]2C[C@H]2c2ccc(F)c(F)c2)c2nnn([C@@H]3C[C@H](OCCO)[C@@H](O)[C@H]3O)c2n1", "note": "[ticagrelor]", "values": [{"measurement": "VerifyNow IPR", "setting": "2.25 h, All", "result": "89 ± 11"}, {"measurement": "VerifyNow PRU", "setting": "2.25 h, All", "result": "28 ± 28", "unit": "PRU"}, {"measurement": "VerifyNow IPR", "setting": "2.25 h, Ticagrelor at 0.5 h", "result": "90 ± 10"}, {"measurement": "VerifyNow PRU", "setting": "2.25 h, Ticagrelor at 0.5 h", "result": "28 ± 27", "unit": "PRU"}, {"measurement": "VerifyNow IPR", "setting": "2.25 h, Ticagrelor at 1.25 h", "result": "89 ± 14"}, {"measurement": "VerifyNow PRU", "setting": "2.25 h, Ticagrelor at 1.25 h", "result": "28 ± 32", "unit": "PRU"}, {"measurement": "VerifyNow IPR", "setting": "2.5 h, All", "result": "70 ± 31"}, {"measurement": "VerifyNow PRU", "setting": "2.5 h, All", "result": "76 ± 79", "unit": "PRU"}, {"measurement": "VerifyNow IPR", "setting": "2.5 h, Ticagrelor at 0.5 h", "result": "78 ± 24"}, {"measurement": "VerifyNow PRU", "setting": "2.5 h, Ticagrelor at 0.5 h", "result": "60 ± 64", "unit": "PRU"}, {"measurement": "VerifyNow IPR", "setting": "2.5 h, Ticagrelor at 1.25 h", "result": "62 ± 37"}, {"measurement": "VerifyNow PRU", "setting": "2.5 h, Ticagrelor at 1.25 h", "result": "93 ± 94", "unit": "PRU"}, {"measurement": "VerifyNow IPR", "setting": "2.75 h, All", "result": "83 ± 21"}, {"measurement": "VerifyNow PRU", "setting": "2.75 h, All", "result": "44 ± 50", "unit": "PRU"}, {"measurement": "VerifyNow IPR", "setting": "2.75 h, Ticagrelor at 0.5 h", "result": "84 ± 15"}, {"measurement": "VerifyNow PRU", "setting": "2.75 h, Ticagrelor at 0.5 h", "result": "44 ± 40", "unit": "PRU"}, {"measurement": "VerifyNow IPR", "setting": "2.75 h, Ticagrelor at 1.25 h", "result": "82 ± 27"}, {"measurement": "VerifyNow PRU", "setting": "2.75 h, Ticagrelor at 1.25 h", "result": "44 ± 62", "unit": "PRU"}, {"measurement": "VerifyNow IPR", "setting": "3 h, All", "result": "88 ± 19"}, {"measurement": "VerifyNow PRU", "setting": "3 h, All", "result": "31 ± 46", "unit": "PRU"}, {"measurement": "VerifyNow IPR", "setting": "3 h, Ticagrelor at 0.5 h", "result": "87 ± 16"}, {"measurement": "VerifyNow PRU", "setting": "3 h, Ticagrelor at 0.5 h", "result": "35 ± 42", "unit": "PRU"}, {"measurement": "VerifyNow IPR", "setting": "3 h, Ticagrelor at 1.25 h", "result": "88 ± 23"}, {"measurement": "VerifyNow PRU", "setting": "3 h, Ticagrelor at 1.25 h", "result": "28 ± 53", "unit": "PRU"}, {"measurement": "VerifyNow IPR", "setting": "4 h, All", "result": "96 ± 4"}, {"measurement": "VerifyNow PRU", "setting": "4 h, All", "result": "10 ± 10", "unit": "PRU"}, {"measurement": "VerifyNow IPR", "setting": "4 h, Ticagrelor at 0.5 h", "result": "97 ± 2"}, {"measurement": "VerifyNow PRU", "setting": "4 h, Ticagrelor at 0.5 h", "result": "7.3 ± 4.4", "unit": "PRU"}, {"measurement": "VerifyNow IPR", "setting": "4 h, Ticagrelor at 1.25 h", "result": "95 ± 5"}, {"measurement": "VerifyNow PRU", "setting": "4 h, Ticagrelor at 1.25 h", "result": "14 ± 14", "unit": "PRU"}, {"measurement": "VerifyNow IPR", "setting": "reference 5.25 h, All", "result": "96 ± 4"}, {"measurement": "VerifyNow PRU", "setting": "reference 5.25 h, All", "result": "9.5 ± 9.7", "unit": "PRU"}, {"measurement": "VerifyNow IPR", "setting": "[12]", "result": "97 ± 2"}, {"measurement": "VerifyNow PRU", "setting": "[12]", "result": "7.7 ± 5.3", "unit": "PRU"}, {"measurement": "VerifyNow IPR", "setting": "[13]", "result": "96 ± 4"}, {"measurement": "VerifyNow PRU", "setting": "[13]", "result": "11 ± 7", "unit": "PRU"}]}
